# Measured values published in PMC5518293, “An Iterative Module in the Azalomycin F Polyketide Synthase Contains a Switchable Enoylreductase Domain” (Angewandte Chemie (International Ed. in English), 2017).
# Molecular target: T1, AzlA (Streptomyces sp. 211726, UniProt A0A1W6GWW1)
# T1 construct: recombinant multienzyme, loading module (ACPL) plus extension module 1 (KS-AT-DH-ER-KR-ACP); mutant stated expressed in E. coli BAP1, holo-ACP1
# Experiment: one-pot reconstitution, LC-ESI-HRMS of acyl-ACP1 and of hydrolysed products
# Assay type: biochemical
# Settings: extender unit; with Azl4, Azl5, 4-guanidinobutyric acid and added stand-alone holo-ACP1
structure (smiles),measurement,value
CC(C)(COP(=O)(O)OP(=O)(O)OC[C@H]1O[C@@H](n2cnc3c(N)ncnc32)[C@H](O)[C@@H]1OP(=O)(O)O)[C@@H](O)C(=O)NCCC(=O)NCCSC(=O)CC(=O)O [malonyl‐CoA],"one-pot reconstitution, LC-ESI-HRMS of acyl-ACP1 and of hydrolysed products",recruits malonyl‐CoA as extender unit
